According to ChEMBL document CHEMBL1156314, “Synthesis and structure-activity relationships of antimalarial 4-oxo-3-carboxyl quinolones” (Bioorg Med Chem, 2010):

What was measured:
[1] = Membrane permeability at 10 uM at pH 4 by PAMPA method; type: ADME; details: read-out: permeability
in vitro = details: PAMPA, pH 7.4
[2] = pampa, pH 7.4, 10 µM

Row | Compound | Papp at 10 µM [1] [×10⁻⁶ cm/s] | permeability [2] | other results
1 | CCOC(=O)c1c(-c2cccc([N+](=O)[O-])c2)[nH]c2cccc(OC)c2c1=O | – | – | permeability at 10 µM (in vitro): 110 ×10⁻⁶ cm/s
2 | NC(=O)N1c2ccccc2C=Cc2ccccc21 [CARBAMAZEPINE] | – | 145 10^-6 cm/s | –
3 | CNC(=C[N+](=O)[O-])NCCSCc1ccc(CN(C)C)o1.Cl [RANITIDINE HYDROCHLORIDE] | – | 1.2 10^-6 cm/s | –

The next lines start with results.

Row | Papp at 10 µM [1] [×10⁻⁶ cm/s] | permeability [2] | Compound | other results
4 | 500 | – | CCOC(=O)c1cc2c(OC)cccc2nc1-c1ccc2c(c1)OCO2 | –
5 | 500 | – | CCOC(=O)c1c(-c2ccc3c(c2)OCO3)nc2cc(OC)ccc2c1Cl | –
